Measured values taken from ChEMBL document CHEMBL1136698, “Peptoid mimics of agouti related protein” (Bioorg Med Chem Lett, 2003).
One block for each compound: values may come before it.

Tests used:
Melanocortin receptor 4 [1] = molecular target: T1, Melanocortin receptor 4 (Homo sapiens, UniProt P32245); test: Binding affinity against human melanocortin 4 receptor (hMC4R) using [125I]- ([Nle4]alpha-MSH) as radioligand
Melanocortin receptor 4 [2] = molecular target: T1, Melanocortin receptor 4; test: Binding affinity against human melanocortin 4 receptor (hMC4R) using [125I]- agouti related protein (AGRP) as radioligand; NA: Not active
Melanocortin receptor 4 [3] = molecular target: T1, Melanocortin receptor 4; test: Binding affinity against human melanocortin 4 receptor (hMC4R) using [125I]- ([Nle4]alpha-MSH) as radioligand; NA: Not active
Melanocortin receptor 4 [4] = molecular target: T1, Melanocortin receptor 4; test: Binding affinity against human melanocortin 4 receptor (hMC4R) using [125I]- agouti related protein (AGRP) as radioligand
Melanocortin receptor 3 [5] = molecular target: T2, Melanocortin receptor 3 (Homo sapiens, UniProt P41968); test: Inhibitory activity against hMC3R (human melanocortin receptor) using [125I]-[Nle4] alpha-MSH as radioligand
[6] = molecular target: T3, Melanocyte-stimulating hormone receptor (Homo sapiens, UniProt Q01726); test: Inhibitory activity against hMC1R (human melanocortin receptor) using [125I]- ASIP Y radioligand
[7] = molecular target: T3, Melanocyte-stimulating hormone receptor; test: Inhibitory activity against hMC1R (human melanocortin receptor) using [125I]-[Nle4] alpha-MSH as radioligand
Melanocortin receptor 4 [8] = molecular target: T1, Melanocortin receptor 4; test: Binding affinity against human melanocortin 4 receptor (hMC4R) using [125I]- NDP-MSH as radioligand
Melanocortin receptor 4 [9] = molecular target: T1, Melanocortin receptor 4; test: Inhibitory activity against hMC4R (human melanocortin receptor) using [125I]-[Nle4] alpha-MSH as radioligand
Melanocortin receptor 3 [10] = molecular target: T2, Melanocortin receptor 3; test: Inhibitory activity against hMC3R (human melanocortin receptor) using I-AGRP as radioligand
Melanocortin receptor 4 [11] = molecular target: T1, Melanocortin receptor 4; test: Inhibitory activity against hMC4R (human melanocortin receptor) using I-AGRP as radioligand

T1 sequence (P32245 whole entry): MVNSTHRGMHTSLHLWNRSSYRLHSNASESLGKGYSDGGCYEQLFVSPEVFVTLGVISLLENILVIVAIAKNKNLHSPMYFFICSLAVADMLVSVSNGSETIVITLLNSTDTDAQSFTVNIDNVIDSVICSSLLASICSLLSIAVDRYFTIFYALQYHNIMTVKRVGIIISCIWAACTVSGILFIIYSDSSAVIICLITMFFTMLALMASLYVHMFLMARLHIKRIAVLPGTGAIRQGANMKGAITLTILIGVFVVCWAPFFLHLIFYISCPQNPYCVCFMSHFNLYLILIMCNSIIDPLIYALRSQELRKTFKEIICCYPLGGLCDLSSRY
T3 sequence (Q01726 whole entry): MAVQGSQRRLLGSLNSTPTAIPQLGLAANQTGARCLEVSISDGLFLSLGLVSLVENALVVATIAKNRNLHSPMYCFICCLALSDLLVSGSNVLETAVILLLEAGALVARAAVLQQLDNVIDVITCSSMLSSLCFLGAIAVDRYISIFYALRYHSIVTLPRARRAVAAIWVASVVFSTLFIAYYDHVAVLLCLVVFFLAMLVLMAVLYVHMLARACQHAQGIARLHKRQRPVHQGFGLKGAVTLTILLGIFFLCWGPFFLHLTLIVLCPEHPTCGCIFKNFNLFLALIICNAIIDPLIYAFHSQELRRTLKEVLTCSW
T2 sequence (P41968 whole entry): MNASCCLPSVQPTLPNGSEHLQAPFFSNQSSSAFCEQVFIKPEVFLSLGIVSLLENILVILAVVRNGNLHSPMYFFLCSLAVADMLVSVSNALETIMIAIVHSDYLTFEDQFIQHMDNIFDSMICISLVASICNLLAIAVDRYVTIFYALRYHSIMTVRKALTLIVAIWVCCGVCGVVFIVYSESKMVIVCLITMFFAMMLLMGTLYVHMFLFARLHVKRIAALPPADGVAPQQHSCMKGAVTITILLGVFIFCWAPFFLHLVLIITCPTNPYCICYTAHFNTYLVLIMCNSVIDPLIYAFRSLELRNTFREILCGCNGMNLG

SMILES: CC(C)(C(N)=O)N(Cc1ccccc1)C(=O)CN(CCc1ccccc1)C(=O)CNCCCN=C(N)N
IC50 (Melanocortin receptor 4 [1]): > 100 µM

SMILES: C[C@H](c1ccccc1)N(CC(N)=O)C(=O)CN(C(=O)CNCCCNC(=N)N)C(c1ccccc1)c1ccccc1
IC50 (Melanocortin receptor 3 [5]): 48 µM
IC50 [6]: 25 µM
IC50 [7]: 9.1 µM
IC50 (Melanocortin receptor 4 [8]): 2.1 µM
IC50 (Melanocortin receptor 4 [4]): 1.9 µM
IC50 (Melanocortin receptor 4 [9]): 3.1 µM
IC50 (Melanocortin receptor 3 [10]): > 50 µM
IC50 (Melanocortin receptor 4 [1]): 3.1 µM
IC50 (Melanocortin receptor 4 [11]): 1.9 µM

Further lines, results first:

IC50 (Melanocortin receptor 4 [2]): Not Active
IC50 (Melanocortin receptor 4 [3]): Not Active
SMILES: C[C@@H](c1ccccc1)N(CC(N)=O)C(=O)CN(Cc1ccccc1)C(=O)CNCCCN=C(N)N

IC50 (Melanocortin receptor 4 [4]): > 100 µM
IC50 (Melanocortin receptor 4 [1]): > 100 µM
SMILES: C[C@H](c1ccccc1)N(CC(N)=O)C(=O)CN(Cc1ccccc1)C(=O)CNCCCN=C(N)N

IC50 (Melanocortin receptor 4 [4]): > 100 µM
IC50 (Melanocortin receptor 4 [1]): > 100 µM
SMILES: NC(=O)CN(Cc1ccccc1)C(=O)CN(Cc1ccccc1)C(=O)CNCCCN=C(N)N
